In patent publication US4335041A, “High sensitivity assays for angiotensin converting enzyme” (Ventrex Laboratories, Inc., priority 1980, dated 1982):
Peptide text beside a SMILES is read from it. * marks the point of attachment. Bz = O=C(c1ccccc1)*

Legend:
[1] = test system: enzyme isolated from hog lung; settings: cited from earlier work
[2] = test system: ACE from rabbit lung; settings: sodium chloride removed; cited from earlier work
[3] = molecular target: T1, Guinea pig serum ACE (Cavia porcellus, UniProt H0UWL7); assay: Kinetics of sulfate-stimulated HipHisLeu hydrolysis (Example 4); format: biochemical
T1 sequence (H0UWL7 33-1234): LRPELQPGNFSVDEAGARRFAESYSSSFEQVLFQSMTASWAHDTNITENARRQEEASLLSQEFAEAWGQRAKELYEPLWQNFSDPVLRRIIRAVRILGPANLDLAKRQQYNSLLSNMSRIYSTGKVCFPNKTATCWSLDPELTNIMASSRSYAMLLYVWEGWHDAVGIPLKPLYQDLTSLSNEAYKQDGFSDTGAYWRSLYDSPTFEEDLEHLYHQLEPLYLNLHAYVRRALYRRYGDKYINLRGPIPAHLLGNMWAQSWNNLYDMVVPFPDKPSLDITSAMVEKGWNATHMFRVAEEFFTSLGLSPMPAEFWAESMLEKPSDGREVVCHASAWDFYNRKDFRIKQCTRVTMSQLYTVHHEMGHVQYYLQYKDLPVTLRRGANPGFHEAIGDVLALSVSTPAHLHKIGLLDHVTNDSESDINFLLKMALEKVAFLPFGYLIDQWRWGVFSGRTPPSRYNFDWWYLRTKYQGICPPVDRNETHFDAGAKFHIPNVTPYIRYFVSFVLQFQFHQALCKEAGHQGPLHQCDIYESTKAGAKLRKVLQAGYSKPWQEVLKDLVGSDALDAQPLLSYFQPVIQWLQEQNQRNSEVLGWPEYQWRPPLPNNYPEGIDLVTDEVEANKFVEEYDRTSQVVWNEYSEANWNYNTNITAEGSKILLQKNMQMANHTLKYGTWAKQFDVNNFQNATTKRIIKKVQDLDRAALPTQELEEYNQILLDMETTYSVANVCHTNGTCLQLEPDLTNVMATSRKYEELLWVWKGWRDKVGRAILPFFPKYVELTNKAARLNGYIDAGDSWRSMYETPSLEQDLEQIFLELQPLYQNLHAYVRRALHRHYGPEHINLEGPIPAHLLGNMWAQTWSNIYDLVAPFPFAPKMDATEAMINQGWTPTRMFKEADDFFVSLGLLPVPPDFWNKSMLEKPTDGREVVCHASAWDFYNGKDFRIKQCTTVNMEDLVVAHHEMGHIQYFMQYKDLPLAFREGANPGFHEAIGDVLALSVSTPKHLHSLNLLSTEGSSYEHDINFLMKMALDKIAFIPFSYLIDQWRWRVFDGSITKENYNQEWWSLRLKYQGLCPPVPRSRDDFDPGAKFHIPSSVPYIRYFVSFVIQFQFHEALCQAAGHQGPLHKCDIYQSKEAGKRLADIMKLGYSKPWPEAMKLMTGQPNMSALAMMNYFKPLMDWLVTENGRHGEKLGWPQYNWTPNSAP
Protocol: In each assay, 50 μl of Guinea pig serum diluted 1-20 (v/v) in the reaction buffer was mixed with 50 μl of buffer containing sufficient ^3 H-HipHisLeu to provide approximately 100,000 cpm total, together with sufficient unlabeled HipHisLeu to produce the desired substrate concentrations, as indicated in Table 2. […] The reaction mixture was then extracted with 1 ml ethyl acetate. 500 μl of the ethyl acetate fraction was sampled and counted in a scintillation counter.

[4] = molecular target: T2, Guinea pig urinary ACE (Cavia porcellus, UniProt H0UWL7); assay: Sulfate and chloride effects on substrate hydrolysis (Example 3); format: biochemical
T2 sequence (H0UWL7 33-1302): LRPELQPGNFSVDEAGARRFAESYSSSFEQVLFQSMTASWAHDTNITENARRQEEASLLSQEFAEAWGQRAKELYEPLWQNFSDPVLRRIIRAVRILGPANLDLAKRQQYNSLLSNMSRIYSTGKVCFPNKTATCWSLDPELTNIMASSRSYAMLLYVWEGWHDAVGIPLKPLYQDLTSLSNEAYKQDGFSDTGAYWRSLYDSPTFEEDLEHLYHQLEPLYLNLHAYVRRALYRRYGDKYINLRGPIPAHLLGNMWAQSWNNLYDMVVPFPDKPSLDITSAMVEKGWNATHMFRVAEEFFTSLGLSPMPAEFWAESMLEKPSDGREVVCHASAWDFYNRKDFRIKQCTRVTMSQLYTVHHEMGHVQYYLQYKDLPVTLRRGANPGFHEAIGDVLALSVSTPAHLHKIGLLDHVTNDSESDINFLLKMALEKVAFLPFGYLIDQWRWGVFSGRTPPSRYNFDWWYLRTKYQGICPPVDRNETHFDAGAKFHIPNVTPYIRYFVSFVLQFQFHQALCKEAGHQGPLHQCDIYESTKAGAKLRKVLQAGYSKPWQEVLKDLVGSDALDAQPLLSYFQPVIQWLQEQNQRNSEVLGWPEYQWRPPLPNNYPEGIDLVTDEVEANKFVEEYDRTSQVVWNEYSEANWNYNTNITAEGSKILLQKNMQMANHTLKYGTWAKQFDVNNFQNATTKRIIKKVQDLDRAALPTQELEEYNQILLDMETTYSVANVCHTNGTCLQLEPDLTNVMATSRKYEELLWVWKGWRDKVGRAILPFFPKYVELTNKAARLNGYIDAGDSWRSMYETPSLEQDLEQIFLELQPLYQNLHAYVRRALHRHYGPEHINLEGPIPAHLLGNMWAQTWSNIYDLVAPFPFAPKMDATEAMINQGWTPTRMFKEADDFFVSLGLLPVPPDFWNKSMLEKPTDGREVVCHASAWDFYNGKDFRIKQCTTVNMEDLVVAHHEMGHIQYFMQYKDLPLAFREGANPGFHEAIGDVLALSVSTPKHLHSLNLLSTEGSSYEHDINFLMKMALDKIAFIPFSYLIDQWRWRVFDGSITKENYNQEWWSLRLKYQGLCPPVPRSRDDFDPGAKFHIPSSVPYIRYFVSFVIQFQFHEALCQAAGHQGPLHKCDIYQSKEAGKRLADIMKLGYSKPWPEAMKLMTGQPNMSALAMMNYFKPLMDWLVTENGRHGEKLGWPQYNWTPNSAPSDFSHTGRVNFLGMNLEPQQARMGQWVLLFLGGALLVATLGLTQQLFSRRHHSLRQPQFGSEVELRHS
Protocol: ^3 H-HipHisLeu prepared as described in Example 2 and ^3 H-benzoylPheAlaPro, prepared as described in Example 5, were used as substrates for Guinea pig urinary ACE, prepared as described in Example 1. […] All incubations were carried out at 37° C. for 10 minutes. Enzyme was diluted in the reaction buffer to provide not more than 15% hydrolysis during the 10 minute incubation. Enzyme, 50 μl, was mixed with 50 μl ^3 H-HipHisLeu, 0.2 mM, having 150,000 total counts pr minute (cpm), or with ^3 H-benzoylPheAlaPro having 10,000 cpm to 200,000 cpm. Reactions were carried out in the presence of 0.1 M NaCl or in the absence of NaCl, with varying amounts of Na2 SO4 added.

[5] = Solvent extraction from acidified reaction mixture; format: physicochemical
Description: While a variety of organic solvents may be suitable for the extraction step, it is preferred to employ toluene.

[6] = test system: ACE; assay: Response of 3H-benzoylPheAlaPro hydrolysis to added NaCl; format: biochemical; settings: 0.05 M added sodium chloride, 0.05 M Hepes pH 8.0
Protocol: An even more sensitive assay for ACE activity has been developed using the novel compound ^3 H-benzoylPheAlaPro as substrate. This new substrate can be used to assay ACE in human urine in incubations as short as 15 minutes. The response of this substrate to ions is strikingly different from the response of HipHisLeu. […] This difficulty has been solved by the proper choice of extracting solvent. While a variety of organic solvents may be suitable for the extraction step, it is preferred to employ toluene. Approximately 88% of ^3 H-benzoylPhe enters the toluene phase while only 6% of the unhydrolyzed substrate enters the toluene phase, when toluene and the acidified reaction mixture are in approximately equal volumes at room temperature.

[7] = sulfate 0.6 M, 0.1 M chloride, pH 8

O=C(O)CNC(=O)CNC(=O)CNC(=O)c1ccccc1 [HipGlyGly] (Bz-Gly-Gly-Gly-OH)
hydrolysis in the absence of NaCl ([1]; no NaCl, Na2SO4 0.001 M to 0.6 M): no hydrolysis | decrease of Km by sulfate [1, 7]: about 15% | increase of Vmax by sulfate [1, 7]: about 5 fold

CC(C)C[C@H](NC(=O)[C@H](Cc1c[nH]cn1)NC(=O)CNC(=O)c1ccccc1)C(=O)O [HipHisLeu] (Bz-Gly-His-Leu-OH)
inhibition on removal of sodium chloride from the reaction medium [2]: 92% | reduction of Km by sulfate ([3]; 0.75 M Na2SO4 in reaction mixture containing 0.1 M NaCl): about 15 fold | decrease in Km by sulfate ([3]; sulfate ion 0.75-1.1 M): 14 fold | Reaction Velocity - Percent of Substrate Hydrolyzed in 10 minutes ([4]; 0.05M Hepes pH 8.0, 0.0M NaCl, Na2SO4 0): 0% | Reaction Velocity - Percent of Substrate Hydrolyzed in 10 minutes ([4]; 0.05M Hepes pH 8.0, 0.0M NaCl, Na2SO4 0.1): 0% | Reaction Velocity - Percent of Substrate Hydrolyzed in 10 minutes ([4]; 0.05M Hepes pH 8.0, 0.0M NaCl, Na2SO4 0.2): 0% | Reaction Velocity - Percent of Substrate Hydrolyzed in 10 minutes ([4]; 0.05M Hepes pH 8.0, 0.0M NaCl, Na2SO4 0.3): 0% | Reaction Velocity - Percent of Substrate Hydrolyzed in 10 minutes ([4]; 0.05M Hepes pH 8.0, 0.0M NaCl, Na2SO4 0.4): 0.1% | Reaction Velocity - Percent of Substrate Hydrolyzed in 10 minutes ([4]; 0.05M Hepes pH 8.0, 0.0M NaCl, Na2SO4 0.5): 0.1% | Reaction Velocity - Percent of Substrate Hydrolyzed in 10 minutes ([4]; 0.05M Hepes pH 8.0, 0.0M NaCl, Na2SO4 0.6): 0.25% | Reaction Velocity - Percent of Substrate Hydrolyzed in 10 minutes ([4]; 0.05M Hepes pH 8.0, 0.0M NaCl, Na2SO4 0.7): 0.25% | Reaction Velocity - Percent of Substrate Hydrolyzed in 10 minutes ([4]; 0.05M Hepes pH 8.0, 0.0M NaCl, Na2SO4 0.75): 0.25% | Reaction Velocity - Percent of Substrate Hydrolyzed in 10 minutes ([4]; 0.05M Hepes pH 8.0, 0.0M NaCl, Na2SO4 0.8): 0.25% | Reaction Velocity - Percent of Substrate Hydrolyzed in 10 minutes ([4]; 0.05M Hepes pH 8.0, 0.0M NaCl, Na2SO4 0.9): 0.7% | Reaction Velocity - Percent of Substrate Hydrolyzed in 10 minutes ([4]; 0.05M Hepes pH 8.0, 0.0M NaCl, Na2SO4 1.2): 3.9% | Reaction Velocity - Percent of Substrate Hydrolyzed in 10 minutes ([4]; 0.05M Hepes pH 8.0, 0.1M NaCl, Na2SO4 0): 0.3% | Reaction Velocity - Percent of Substrate Hydrolyzed in 10 minutes ([4]; 0.05M Hepes pH 8.0, 0.1M NaCl, Na2SO4 0.4): 4.1% | Reaction Velocity - Percent of Substrate Hydrolyzed in 10 minutes ([4]; 0.05M Hepes pH 8.0, 0.1M NaCl, Na2SO4 0.6): 8.3%

C[C@H](NC(=O)[C@H](Cc1ccccc1)NC(=O)c1ccccc1)C(=O)N1CCC[C@H]1C(=O)O [benzoylPheAlaPro, benzoyl-Phe-Ala-Pro] (Bz-Phe-Ala-Pro-OH)
extraction into ethyl acetate ([5]; reaction terminated with dilute hydrochloric acid): extracted almost quantitatively | fraction entering the toluene phase ([5]; toluene and acidified reaction mixture in approximately equal volumes, room temperature): 6% | increase of apparent reaction velocity by added NaCl [6]: approximately 3 fold | Reaction Velocity - Percent of Substrate Hydrolyzed in 10 minutes ([4]; 0.05 Hepes pH 8.0, 0.1 M NaCl, Na2SO4 0): 4.4% | Reaction Velocity - Percent of Substrate Hydrolyzed in 10 minutes ([4]; 0.05 Hepes pH 8.0, 0.1 M NaCl, Na2SO4 0.1): 5.0% | Reaction Velocity - Percent of Substrate Hydrolyzed in 10 minutes ([4]; 0.05 Hepes pH 8.0, 0.1 M NaCl, Na2SO4 0.5): 5.6%
